Test results reported in ChEMBL document CHEMBL5634117 (Eur J Med Chem, 2023).

Tests used:
M14 = assay: Growth inhibition of human M14 cells assessed as reduction in cell viability measured after 48 hrs by SRB assay; format: functional
U-251 = assay: Growth inhibition of human U-251 cells assessed as reduction in cell viability measured after 48 hrs by SRB assay; format: functional
HCT-116 = assay: Growth inhibition of human HCT-116 cells assessed as reduction in cell viability measured after 48 hrs by SRB assay; format: functional
NCI-H23 = assay: Growth inhibition of human NCI-H23 cells assessed as reduction in cell viability measured after 48 hrs by SRB assay; format: functional
TK-10 = assay: Growth inhibition of human TK-10 cells assessed as reduction in cell viability measured after 48 hrs by SRB assay; format: functional
UACC-62 = assay: Growth inhibition of human UACC-62 cells assessed as reduction in cell viability measured after 48 hrs by SRB assay; format: functional
HCT-15 = assay: Growth inhibition of human HCT-15 cells assessed as reduction in cell viability measured after 48 hrs by SRB assay; format: functional
Hs-578T = assay: Growth inhibition of human Hs-578T cells assessed as reduction in cell viability measured after 48 hrs by SRB assay; format: functional
SK-OV-3 = assay: Growth inhibition of human SK-OV-3 cells assessed as reduction in cell viability measured after 48 hrs by SRB assay; format: functional
[1] = target: T1, Mitogen-activated protein kinase 8 (Homo sapiens, UniProt P45983); assay: Inhibition of human JNK1 at 10 uM in presence of ATP relative to control
PC-3 = assay: Growth inhibition of human PC-3 cells assessed as reduction in cell viability measured after 48 hrs by SRB assay; format: functional
IGROV-1 = assay: Growth inhibition of human IGROV-1 cells assessed as reduction in cell viability measured after 48 hrs by SRB assay; format: functional
COLO 205 = assay: Growth inhibition of human COLO 205 cells assessed as reduction in cell viability measured after 48 hrs by SRB assay; format: functional
BT-549 = assay: Growth inhibition of human BT-549 cells assessed as reduction in cell viability measured after 48 hrs by SRB assay; format: functional
HCC 2998 = assay: Growth inhibition of human HCC 2998 cells assessed as reduction in cell viability measured after 48 hrs by SRB assay; format: functional
SNB-19 = assay: Growth inhibition of human SNB-19 cells assessed as reduction in cell viability measured after 48 hrs by SRB assay; format: functional
786-0 = assay: Growth inhibition of human 786-0 cells assessed as reduction in cell viability measured after 48 hrs by SRB assay; format: functional
MDA-MB-231 = assay: Growth inhibition of human MDA-MB-231 cells assessed as reduction in cell viability measured after 48 hrs by SRB assay; format: functional
OVCAR-4 = assay: Growth inhibition of human OVCAR-4 cells assessed as reduction in cell viability measured after 48 hrs by SRB assay; format: functional
UACC-257 = assay: Growth inhibition of human UACC-257 cells assessed as reduction in cell viability measured after 48 hrs by SRB assay; format: functional
[2] = target: Mitogen-activated protein kinase 10 (Homo sapiens, UniProt P53779); assay: Inhibition of human JNK3 at 10 uM in presence of ATP relative to control
OVCAR-8 = assay: Growth inhibition of human OVCAR-8 cells assessed as reduction in cell viability measured after 48 hrs by SRB assay; format: functional
A498 = assay: Growth inhibition of human A498 cells assessed as reduction in cell viability measured after 48 hrs by SRB assay; format: functional
[3] = target: T1, Mitogen-activated protein kinase 8; assay: Inhibition of human JNK1 in presence of ATP
SR = assay: Growth inhibition of human SR cells assessed as reduction in cell viability measured after 48 hrs by SRB assay; format: functional
EKVX = assay: Growth inhibition of human EKVX cells assessed as reduction in cell viability measured after 48 hrs by SRB assay; format: functional
HL-60(TB) = assay: Growth inhibition of human HL-60(TB) cells assessed as reduction in cell viability measured after 48 hrs by SRB assay; format: functional
HT-29 = assay: Growth inhibition of human HT-29 cells assessed as reduction in cell viability measured after 48 hrs by SRB assay; format: functional
OVCAR-3 = assay: Growth inhibition of human OVCAR-3 cells assessed as reduction in cell viability measured after 48 hrs by SRB assay; format: functional
ACHN = assay: Growth inhibition of human ACHN cells assessed as reduction in cell viability measured after 48 hrs by SRB assay; format: functional
NCI-H322M = assay: Growth inhibition of human NCI-H322M cells assessed as reduction in cell viability measured after 48 hrs by SRB assay; format: functional
MCF7 = assay: Growth inhibition of human MCF7 cells assessed as reduction in cell viability measured after 48 hrs by SRB assay; format: functional
SK-MEL-28 = assay: Growth inhibition of human SK-MEL-28 cells assessed as reduction in cell viability measured after 48 hrs by SRB assay; format: functional
NCI-H226 = assay: Growth inhibition of human NCI-H226 cells assessed as reduction in cell viability measured after 48 hrs by SRB assay; format: functional
SK-MEL-5 = assay: Growth inhibition of human SK-MEL-5 cells assessed as reduction in cell viability measured after 48 hrs by SRB assay; format: functional
SF-268 = assay: Growth inhibition of human SF-268 cells assessed as reduction in cell viability measured after 48 hrs by SRB assay; format: functional
SNB-75 = assay: Growth inhibition of human SNB-75 cells assessed as reduction in cell viability measured after 48 hrs by SRB assay; format: functional
SN12C = assay: Growth inhibition of human SN12C cells assessed as reduction in cell viability measured after 48 hrs by SRB assay; format: functional
CAKI-1 = assay: Growth inhibition of human CAKI-1 cells assessed as reduction in cell viability measured after 48 hrs by SRB assay; format: functional
SF-539 = assay: Growth inhibition of human SF-539 cells assessed as reduction in cell viability measured after 48 hrs by SRB assay; format: functional
HOP-62 = assay: Growth inhibition of human HOP-62 cells assessed as reduction in cell viability measured after 48 hrs by SRB assay; format: functional
[4] = target: Mitogen-activated protein kinase 9 (Homo sapiens, UniProt P45984); assay: Inhibition of human JNK2 at 10 uM in presence of ATP relative to control
CCRF-CEM = assay: Growth inhibition of human CCRF-CEM cells assessed as reduction in cell viability measured after 48 hrs by SRB assay; format: functional
KM12 = assay: Growth inhibition of human KM12 cells assessed as reduction in cell viability measured after 48 hrs by SRB assay; format: functional
NCI-H522 = assay: Growth inhibition of human NCI-H522 cells assessed as reduction in cell viability measured after 48 hrs by SRB assay; format: functional
RXF 393 = assay: Growth inhibition of human RXF 393 cells assessed as reduction in cell viability measured after 48 hrs by SRB assay; format: functional

T1 sequence (P45983 whole entry): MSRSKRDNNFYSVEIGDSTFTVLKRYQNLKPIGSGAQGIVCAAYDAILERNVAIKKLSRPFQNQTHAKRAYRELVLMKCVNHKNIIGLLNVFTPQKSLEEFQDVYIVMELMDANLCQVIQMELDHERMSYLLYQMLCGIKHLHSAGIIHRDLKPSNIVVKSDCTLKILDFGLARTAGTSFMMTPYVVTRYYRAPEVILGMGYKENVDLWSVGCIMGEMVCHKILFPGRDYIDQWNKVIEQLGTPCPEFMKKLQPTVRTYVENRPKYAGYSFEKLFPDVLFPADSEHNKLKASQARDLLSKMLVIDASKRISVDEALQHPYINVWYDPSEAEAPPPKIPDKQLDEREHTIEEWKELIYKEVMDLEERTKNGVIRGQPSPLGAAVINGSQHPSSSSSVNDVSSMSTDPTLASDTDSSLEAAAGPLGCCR
Sequence of Mitogen-activated protein kinase 9 (P45984 whole entry, looked up): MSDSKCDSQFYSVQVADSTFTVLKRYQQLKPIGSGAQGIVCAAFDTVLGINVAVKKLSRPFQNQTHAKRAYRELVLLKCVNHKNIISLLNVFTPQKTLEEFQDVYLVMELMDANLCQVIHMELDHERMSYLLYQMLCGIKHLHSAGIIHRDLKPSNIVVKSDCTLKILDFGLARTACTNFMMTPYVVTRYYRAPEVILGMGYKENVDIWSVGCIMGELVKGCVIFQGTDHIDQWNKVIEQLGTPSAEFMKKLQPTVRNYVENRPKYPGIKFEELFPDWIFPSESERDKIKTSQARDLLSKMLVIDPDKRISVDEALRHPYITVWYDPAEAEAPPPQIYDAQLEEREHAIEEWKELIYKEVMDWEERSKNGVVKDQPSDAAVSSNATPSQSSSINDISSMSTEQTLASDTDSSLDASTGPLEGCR
Sequence of Mitogen-activated protein kinase 10 (P53779 whole entry): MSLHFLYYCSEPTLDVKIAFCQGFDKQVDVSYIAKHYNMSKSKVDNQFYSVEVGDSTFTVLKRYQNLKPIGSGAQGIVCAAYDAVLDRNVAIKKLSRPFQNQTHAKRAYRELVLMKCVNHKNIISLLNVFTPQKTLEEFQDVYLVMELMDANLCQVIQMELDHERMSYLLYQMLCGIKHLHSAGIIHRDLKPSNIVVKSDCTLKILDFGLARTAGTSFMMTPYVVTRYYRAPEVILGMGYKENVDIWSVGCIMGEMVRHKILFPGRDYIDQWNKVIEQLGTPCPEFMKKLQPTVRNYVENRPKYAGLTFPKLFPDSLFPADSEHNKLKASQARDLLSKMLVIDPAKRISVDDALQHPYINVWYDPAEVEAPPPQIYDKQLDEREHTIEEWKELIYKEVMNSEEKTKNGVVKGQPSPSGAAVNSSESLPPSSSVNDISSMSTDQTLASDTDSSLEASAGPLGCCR

CC(C)(C)n1cc(-c2ccnc(NCCCNS(=O)(=O)c3ccc(Cl)cc3)c2)c(-c2cccc(O)c2)n1
GI50 (M14): 1720 nM
GI50 (U-251): 1620 nM
GI50 (HCT-116): 1670 nM
GI50 (NCI-H23): 1680 nM
GI50 (TK-10): 2380 nM
GI50 (UACC-62): 1650 nM
GI50 (HCT-15): 1520 nM
GI50 (Hs-578T): 1840 nM
GI50 (SK-OV-3): 2350 nM
inhibition [1]: 100%
GI50 (PC-3): 1360 nM
GI50 (IGROV-1): 1880 nM
GI50 (COLO 205): 1660 nM
GI50 (BT-549): 1670 nM
GI50 (HCC 2998): 1760 nM
GI50 (SNB-19): 2180 nM
GI50 (786-0): 2030 nM
GI50 (MDA-MB-231): 1870 nM
GI50 (OVCAR-4): 1940 nM
GI50 (UACC-257): 1860 nM
inhibition [2]: 99.2%
GI50 (OVCAR-8): 2220 nM
GI50 (A498): 1510 nM
IC50 [3]: 43.8 nM
GI50 (SR): 1750 nM
GI50 (EKVX): 2040 nM
GI50 (HL-60(TB)): 2510 nM
GI50 (HT-29): 1440 nM
GI50 (OVCAR-3): 1890 nM
GI50 (ACHN): 1970 nM
GI50 (NCI-H322M): 2460 nM
GI50 (MCF7): 1840 nM
GI50 (SK-MEL-28): 1570 nM
GI50 (NCI-H226): 2110 nM
GI50 (SK-MEL-5): 1440 nM
GI50 (SF-268): 2180 nM
GI50 (SNB-75): 1370 nM
GI50 (SN12C): 1650 nM
GI50 (CAKI-1): 2060 nM
GI50 (SF-539): 1650 nM
GI50 (HOP-62): 1740 nM
inhibition [4]: 98.9%
GI50 (CCRF-CEM): 2130 nM
GI50 (KM12): 2080 nM
GI50 (NCI-H522): 1920 nM
GI50 (RXF 393): 1460 nM

O=C1c2ccccc2-c2n[nH]c3cccc1c23
GI50 (M14): 100000 nM
GI50 (U-251): 23100 nM
GI50 (HCT-116): 44600 nM
GI50 (NCI-H23): 23800 nM
GI50 (TK-10): 5930 nM
GI50 (UACC-62): 14600 nM
GI50 (HCT-15): 8040 nM
GI50 (Hs-578T): 55100 nM
GI50 (SK-OV-3): 21000 nM
GI50 (PC-3): 23300 nM
GI50 (IGROV-1): 11400 nM
GI50 (COLO 205): 19500 nM
GI50 (BT-549): 30800 nM
GI50 (HCC 2998): 9620 nM
GI50 (SNB-19): 50000 nM
GI50 (786-0): 27100 nM
GI50 (MDA-MB-231): 65300 nM
GI50 (OVCAR-4): 31900 nM
GI50 (UACC-257): 29500 nM
GI50 (OVCAR-8): 22000 nM
GI50 (A498): 7030 nM
GI50 (SR): 13100 nM
GI50 (EKVX): 20000 nM
GI50 (HL-60(TB)): 42100 nM
GI50 (HT-29): 25900 nM
GI50 (OVCAR-3): 15300 nM
GI50 (ACHN): 6640 nM
GI50 (NCI-H322M): 25000 nM
GI50 (MCF7): 49000 nM
GI50 (SK-MEL-28): 37500 nM
GI50 (NCI-H226): 22900 nM
GI50 (SK-MEL-5): 14600 nM
GI50 (SF-268): 18400 nM
GI50 (SNB-75): 16900 nM
GI50 (SN12C): 14800 nM
GI50 (CAKI-1): 3560 nM
GI50 (SF-539): 32200 nM
GI50 (HOP-62): 69300 nM
GI50 (CCRF-CEM): 16000 nM
GI50 (KM12): 2620 nM
GI50 (NCI-H522): 12200 nM
GI50 (RXF 393): 20800 nM

CC(C)(C)n1cc(-c2ccnc(NCCCNS(=O)(=O)c3ccc(Br)cc3)c2)c(-c2cccc(O)c2)n1
GI50 (M14): 1780 nM
GI50 (U-251): 1650 nM
GI50 (HCT-116): 1310 nM
GI50 (NCI-H23): 1830 nM
GI50 (TK-10): 2510 nM
GI50 (UACC-62): 1590 nM
GI50 (HCT-15): 1480 nM
GI50 (Hs-578T): 2240 nM
GI50 (SK-OV-3): 2520 nM
inhibition [1]: 98.8%
GI50 (PC-3): 1600 nM
GI50 (IGROV-1): 1910 nM
GI50 (COLO 205): 1850 nM
GI50 (BT-549): 1500 nM
GI50 (HCC 2998): 1920 nM
GI50 (SNB-19): 2110 nM
GI50 (786-0): 1660 nM
GI50 (MDA-MB-231): 1740 nM
GI50 (OVCAR-4): 1910 nM
GI50 (UACC-257): 2010 nM
inhibition [2]: 99.2%
GI50 (OVCAR-8): 2430 nM
GI50 (A498): 1330 nM
IC50 [3]: 97.8 nM
GI50 (SR): 2000 nM
GI50 (EKVX): 1950 nM
GI50 (HL-60(TB)): 2720 nM
GI50 (HT-29): 1420 nM
GI50 (OVCAR-3): 2150 nM
GI50 (ACHN): 1990 nM
GI50 (NCI-H322M): 2310 nM
GI50 (MCF7): 1880 nM
GI50 (SK-MEL-28): 1790 nM
GI50 (NCI-H226): 2310 nM
GI50 (SK-MEL-5): 1520 nM
GI50 (SF-268): 2400 nM
GI50 (SNB-75): 1760 nM
GI50 (SN12C): 1610 nM
GI50 (CAKI-1): 2160 nM
GI50 (SF-539): 1700 nM
GI50 (HOP-62): 2050 nM
inhibition [4]: 99.3%
GI50 (CCRF-CEM): 2260 nM
GI50 (KM12): 2110 nM
GI50 (NCI-H522): 2130 nM
GI50 (RXF 393): 1460 nM
